Read-outs that look alike come from different tables or passages of the source. Peptide text beside a SMILES is read from it. * marks the point of attachment. Palmitoyl = CCCCCCCCCCCCCCCC(=O)*
Experiments:
[1] = tested on: HT-29 colorectal adenocarcinoma cells; assay: In vitro antitumor effect, AlamarBlue; format: cell-based, human; conditions: 5 μM pCM15 lipopeptide, 24 h treatment, vs medium-treated control, mean ± SD, n = 4
Experimental: All data are presented as mean ± SD (n = 4). Statistical analysis was performed using one-way analysis of variance (ANOVA), followed by Tukey's post-hoc test. Statistical significances were denoted as ^∗P < 0.05, ^∗∗P < 0.01, and ^∗∗∗P < 0.001.

S. aureus = tested on: S. aureus; parameters: method as in 2 sources, one per row (each row's own in cited_ref): ref 69 = [69]; PMID 34822969; doi:10.1016/j.micpath.2021.105301; 69 Roshanak S. Shahidi F. Tabatabaei Yazdi F. Buforin I an alternative to conventional antibiotics: Evaluation of the antimicrobial properties, stability, and safety Microb. Pathog. 161 2021 105301 10 ||| ref 53,70 = [53]; PMID 10890923; doi:10.1073/pnas.150518097; 53 Park C.B. Yi K.S. Matsuzaki K. Structure-activity analysis of buforin II, a histone H2A-derived antimicrobial peptide: The proline hinge is responsible for the cell-penetrating ability of buforin I || [70]; 70 Lee H. Yang S. Dimerization of cell-penetrating buforin II enhances antimicrobial properties J. Anal. Sci. Technol. 12 2021 9; conditions: cited from earlier work
Source text: (§1) However, since this peptide contains only four amino aci ...

MRSA strain = tested on: MRSA strain; parameters: method as in PMID 34822969; conditions: cited from earlier work
Source text: as §1

[2] = cited from earlier work
[3] = cited from earlier work; remark: listed apart in the source
Source text: Supplement mmc1.docx, table 1: Table S1. Lipopeptide-based drugs, with their characteristics, disease target, and the year of approval. | column: Plasma protein binding

[4] = DLS of peptide-loaded poloxamer micelles; format: physicochemical; conditions: lipopeptide-loaded Plur123 micelles, DLS 37 °C
Experimental: Peptide-loaded poloxamer micelles were prepared by solubilizing the peptides in 50 g/L poloxamer solutions in PBS (pH 7.4). The peptides were previously dissolved in DMSO, and then the poloxamer solutions were added. The final DMSO content was 5%. The solutions were left shaking overnight to allow enough time for solubilization. Before the measurements, PBS was added to the solutions to reach 5 g/L poloxamer concentration. In the biological experiments, these samples were diluted twice with the corresponding culture media.
The average hydrodynamic diameter (dH) and polydispersity of the peptide-loaded micelles were determined using a dynamic light scattering (DLS) instrument (NanoLab 3D^TM, LS Instruments, Fribourg, Switzerland) based on three-dimensional (3D) modulation technology. A fibre-coupled diode laser operating at 638 nm served as the light source. The measurements were performed at a detection angle of 90° and at temperatures of 37.00 ± 0.02 °C. The recorded autocorrelation functions were analyzed using the second order cumulant expansion method. Before the measurements, the samples were filtered with a 0.2 μm syringe filter.

[5] = Antigen release, dialysis membrane assay; format: physicochemical; conditions: pATIPC-Plur123 mixed micelles (80 µM peptide, Plur123 40 g/L in PBS), dialysis 10K MWCO, 37 °C, after 4 h, HPLC AUC vs 0 h
Experimental: Lipopeptide release was assessed by incubating the mixed micelles in PBS at 37 °C for 6 hours, using the dialysis membrane method. Briefly, the pATIPC lipopeptide (80 µM) was dissolved in Plur123 (40 g/L, in PBS), mixed, then centrifuged using a 0.2 µm Nylon filter to remove the aggregated peptide particles. The formation of the mixed micelles was checked by DLS and the peptide content was measured by HPLC, as described above. Mixed micelle solution was then loaded into a Slide-A-Lyzer Mini Dialysis Device (10K MWCO) (Thermo Fisher Scientific, Waltham, MA, USA) and incubated at 37 °C using PBS as release medium. At 0, 1, 4 and 6 h, the micelles within the dialysis membrane were taken for measurements of particle size and distribution by DLS.

[6] = Encapsulation efficacy: HPLC of lipopeptide passing 0.2 μm filter; format: physicochemical; conditions: poloxamer 5 g/L in PBS, peptide pre-dissolved in DMSO (pL1 200 μM, pCM15 100 μM, pATIPC 10 μM); centrifuged through 0.2 μm nylon filter, HPLC AUC vs fully solubilized lipopeptide
Experimental: Section S3 in the Supplementary data contains the detailed characterization of the mixed micelles (Fig. S7A). First, calibration curves were plotted for each lipopeptide in a medium in which the compounds were perfectly soluble, namely in eluent B (0.1% TFA in acetonitrile:water (4:1, V/V) solution) (Figs. S7B−D). Next, poloxamer-lipopeptide constructs were prepared as follows: the lipopeptide samples were pre-dissolved in DMSO and then mixed with the poloxamer/PBS solutions, left shaking overnight. In the next day, the concentration was adjusted by adding PBS to the solutions. The composition of the samples was as follows: poloxamer 5 g/L and peptides (pL1 200 μM, pCM15 100 μM, and pATIPC 10 μM). Then, lipopeptide/poloxamer constructs were centrifuged using a 0.2 μm nylon filter, diluted twice with eluent B, and injected to the HPLC column. […] The highest encapsulation efficacy was measured for the shortest lipopeptide pL1, and all three poloxamers formed mixed micelles with the lipopeptides in more than 80%. It was assumed that the filtered part of the samples contains the lipopeptide aggregates with particle size of […].
Fig. S7. Formulation of Lipopeptides with Poloxamers. Overview of the analytical characterization of the samples (A). Calibration curves for the fully solubilized lipopeptides with the linear regression equation (B-D). […]

Compound	Half-life ([2]; approved drug characteristics)	Route of elimination ([2]; approved drug characteristics)	Plasma protein binding ([3]; approved drug characteristics)	also measured
CCCCCCCCCCCCCCCC(=O)N[C@@H](CCCCN)C(=O)N[C@@H](Cc1c[nH]c2ccccc12)C(=O)N[C@@H](CCCCN)C(=O)N[C@@H](CC(C)C)C(=O)N[C@@H](Cc1ccccc1)C(=O)N[C@@H](CCCCN)C(=O)N[C@@H](CCCCN)C(=O)N[C@H](C(=O)NCC(=O)N[C@@H](C)C(=O)N[C@H](C(=O)N[C@@H](CC(C)C)C(=O)N[C@@H](CCCCN)C(=O)N[C@H](C(=O)N[C@@H](CC(C)C)C(N)=O)C(C)C)C(C)C)[C@@H](C)CC [pCM15] (Palmitoyl-KWKLFKKIGAVLKVL-NH2)				Cytotoxicity [1]: 35.0% ± 4.8
AGRGKQGGKVRAKAKTRSSRAGLQFPVGRVHRLLRKGNY [Buforin I]				Concentration with activity against S. aureus (S. aureus): 10 µg/mL; MIC for the MRSA strain (MRSA strain): 14 µg/mL
Caspofungin	9 to 11 h	Urinary and fecal excretion	97%	
Colistin				Half-life ([2]; in vivo): 5 h; Route of elimination ([2]; in vivo): Mainly urinary excretion; Plasma protein binding [3]: 50%
Dalbavancin		Mainly through fecal excretion	93%	
Daptomycin		Urinary excretion	90-94%	
Insulin degludec	25 h	Mainly urinary excretion	>99%	
Insulin detemir				Half-life ([2]; in vivo): 5 to 7 h; Route of elimination ([2]; in vivo): Mainly urinary excretion; Plasma protein binding [3]: 98%
Micafungin	14 to 17 h	Mainly through fecal excretion	>99%	
Polymyxin B	6 to 11.5 h	Mainly urinary excretion		
Rezafungin	>130 h	Mainly through fecal excretion	87-99%	
pal-KLVANNTRLTKPK- (FFGINTIPIAC)-GGLIDIAPHQISSV [pATIPC]				Increase in particle size after one week of storage as a solution [4]: 10 nm; pATIPC antigen remaining inside the micelles [5]: more than 50%; Encapsulation (lipopeptide in form <0.2 μm, in mixed micelles) [6]: around 60%

Reference: publication PMC11774939, “Optimizing lipopeptide bioactivity: The impact of non-ionic surfactant dressing” (Journal of Pharmaceutical Analysis, 2024)
